Reference: patent US4442106A, “Quinoline derivatives, pharmaceutical compositions containing such compounds, and methods of treating cardiovascular conditions with them” (ACF Chemiefarma N.V., priority 1980, dated 1984)
Like-named read-outs stand apart in the source and are kept apart here.

Experiments:
LD50 in mice = conditions: mouse, in vivo
[1] = system: right ventricle of the heart; test: Guinea Pigs Electrostimulation Test (arrhythmias by electrostimulation of the right ventricle of the heart); assay type: in vivo; conditions: Cavia porcellus, 0.5 h, 30 minutes before stimulation, read-out: Percent increase in voltage required for arrhythmia; for change in vivo at 32 mg/kg: standard dose 32 mg/kg intraduodenal
Procedure: Experiment 2-Effectiveness of the compounds of Examples in the Guinea Pigs Electrostimulation Test
Arrhythmias are induced in guinea pigs by electrostimulation of the right ventricle of the heart. The animals are anaesthesized with urethane (1.2 g/kg i.p.) and artificially respirated before a needle electrode is inserted in the right ventricle of the heart. Substances are given intraduodinally 30 minutes before the stimulation at a standard dose of 32 mg/kg. In some cases a different dose was used as indicated.
The voltage needed for induction of extra systoles in control animals (n=6) is compared with that required for induction of arrhythmias in treated animals (n=6).
This method is based on the work of L. Szekeres and G. J. Papp, Naunyn-Schmiedebergs Arch. Exp. Path. Pharmak., 245, 70 (1963).
In the table the results of certain compounds of the invention are mentioned, which have been carried out according to the method described above.
The numbers of the compounds correspond with those of the Examples.

[2] = system: spontaneously hypertensive rats; test: Effectiveness in spontaneously hypertensive rats: systolic blood pressure by tail cuff method; assay type: in vivo; conditions: Rattus norvegicus, read-out: Change of systolic blood-pressures
Procedure: Experiment 1-Effectiveness of the compounds of Examples in spontaneously hypertensive rats
Systolic blood pressures were recorded by a modification of the tail cuff method described by I.M. Claxton et al., Eur. J.Pharmacology 37, 179 (1976). An oscilloscope or W+W BP recorder, model 8002, was used to display pulses.
Prior to all measurements rats were placed in a heated environment (33.5±0.5° C.) before transfer to a restraining cage. Each determination of blood pressure was the mean of at least 6 readings.
Spontaneously hypertensive rats (aged 12-18 weeks) with systolic blood pressures >170 mm Hg were considered hypertensive.
In the following table the results with certain compounds of the invention, which have been carried out with the above-described method, are mentioned. The numbers of the compounds correspond with those of the Examples.

Question: What does the source list for `CCCN1CC[C@@H](CCC(=O)c2cc(C)nc3ccccc23)[C@@H](CC)C1` [Compound 26, N-propyl-2'-methyl-hydrocinchonicine]?
Answer: LD50 (LD50 in mice): 500 mg/kg; change in vivo at 32 mg/kg [1]: 24%; change in vivo at 10 mg/kg ([2]; 1 h): 0%; change in vivo at 10 mg/kg ([2]; 2 h): 3%; change in vivo at 10 mg/kg ([2]; 4 h): -5%; change in vivo at 10 mg/kg ([2]; 6 h): -7%

Question: For `CCCCCN1CC[C@@H](CC(O)Cc2cc(C(F)(F)F)nc3ccccc23)[C@@H](CC)C1` (stereo partly drawn) [Compound 61], which change in vivo at 8 mg/kg ([1]; at 8 mg/kg, intraduodenal) is on record?
Answer: Its change in vivo at 8 mg/kg is 11%.

Question: What about the change in vivo at 10 mg/kg ([2]; 1 h) of the same compound?
Answer: Its change in vivo at 10 mg/kg is -8%.

Question: What about the change in vivo at 10 mg/kg ([2]; 2 h) of the same compound?
Answer: The change in vivo at 10 mg/kg was -10%.

Question: What about the change in vivo at 10 mg/kg ([2]; 4 h) of the same compound?
Answer: The change in vivo at 10 mg/kg was -13%.

Question: What about the change in vivo at 10 mg/kg ([2]; 6 h) of the same compound?
Answer: Its change in vivo at 10 mg/kg is -12%.

Question: What about the change in vivo at 10 mg/kg ([2]; 24 h) of the same compound?
Answer: Its change in vivo at 10 mg/kg is -7%.

Question: For `CCCN1CC[C@@H](CCC(=O)c2cc(C)nc3ccc(OC)cc23)[C@@H](CC)C1` [Compound 29], which change in vivo at 16 mg/kg ([1]; at 16 mg/kg, intraduodenal) is on record?
Answer: The change in vivo at 16 mg/kg was 9%.

Question: And the change in vivo at 100 mg/kg ([2]; 1 h)?
Answer: Its change in vivo at 100 mg/kg is -10%.

Question: And the change in vivo at 100 mg/kg ([2]; 2 h)?
Answer: The change in vivo at 100 mg/kg was -27%.

Question: What about the change in vivo at 100 mg/kg ([2]; 4 h) of the same compound?
Answer: The change in vivo at 100 mg/kg was -18%.

Question: What about the change in vivo at 100 mg/kg ([2]; 6 h) of the same compound?
Answer: Its change in vivo at 100 mg/kg is -22%.

Question: What about the change in vivo at 100 mg/kg ([2]; 24 h) of the same compound?
Answer: Its change in vivo at 100 mg/kg is 0%.

Question: What does the source list for `CC[C@H]1CN(CCCC(=O)c2ccccc2)CC[C@H]1CCC(=O)c1cc(C)nc2ccccc12` [Compound 25, N-(3-benzoylpropyl)-2'-methyl-hydrocinchonicine.bifumarate]?
Answer: change in vivo at 32 mg/kg [1]: 5%; change in vivo at 100 mg/kg ([2]; 1 h): -16%; change in vivo at 100 mg/kg ([2]; 2 h): -25%; change in vivo at 100 mg/kg ([2]; 4 h): -9%; change in vivo at 100 mg/kg ([2]; 6 h): -5%; change in vivo at 100 mg/kg ([2]; 24 h): 2%

Question: With `CCCCCN1CC[C@@H](CCC(=O)c2cc(C)nc3ccccc23)[C@@H](CC)C1` [Compound 27] as the compound, how does the change in vivo at 32 mg/kg [1] read?
Answer: Its change in vivo at 32 mg/kg is -2%.

Question: What about the change in vivo at 100 mg/kg ([2]; 1 h) of the same compound?
Answer: The change in vivo at 100 mg/kg was -1%.

Question: What about the change in vivo at 100 mg/kg ([2]; 2 h) of the same compound?
Answer: The change in vivo at 100 mg/kg was -13%.

Question: And the change in vivo at 100 mg/kg ([2]; 4 h)?
Answer: The change in vivo at 100 mg/kg was -28%.

Question: What about the change in vivo at 100 mg/kg ([2]; 6 h) of the same compound?
Answer: The change in vivo at 100 mg/kg was -16%.

Question: And the change in vivo at 100 mg/kg ([2]; 24 h)?
Answer: The change in vivo at 100 mg/kg was -3%.

Question: Which change in vivo at 4 mg/kg ([1]; at 4 mg/kg, intraduodenal) does the source give for `CCCN1CC[C@@H](CC(=O)Cc2cc(OC)nc3ccccc23)[C@@H](CC)C1` [Compound 63, 1-(2-Methoxy-4-quinolyl)-3-[3(R)-ethyl-N-propyl-4(S)-piperidyl]-propanone-2.bioxalate] here?
Answer: The change in vivo at 4 mg/kg was 12%.

Question: And the change in vivo at 10 mg/kg ([2]; 1 h)?
Answer: Its change in vivo at 10 mg/kg is -1%.

Question: What about the change in vivo at 10 mg/kg ([2]; 2 h) of the same compound?
Answer: The change in vivo at 10 mg/kg was 1%.

Question: And the change in vivo at 10 mg/kg ([2]; 4 h)?
Answer: Its change in vivo at 10 mg/kg is -4%.

Question: And the change in vivo at 10 mg/kg ([2]; 6 h)?
Answer: The change in vivo at 10 mg/kg was -3%.

Question: And the change in vivo at 10 mg/kg ([2]; 24 h)?
Answer: The change in vivo at 10 mg/kg was -6%.

Question: Which results are given for `CC[C@H]1CN(CCCC(=O)c2ccccc2)CC[C@H]1CC(O)Cc1cc(OC)nc2ccccc12` (stereo partly drawn) [Compound 54, N-(3-benzoylpropyl)-2'-methoxy-hydrocinchonicinol-2]?
Answer: change in vivo at 32 mg/kg [1]: 16%; change in vivo at 10 mg/kg ([2]; 1 h): -17%; change in vivo at 10 mg/kg ([2]; 2 h): -1%; change in vivo at 10 mg/kg ([2]; 4 h): -16%; change in vivo at 10 mg/kg ([2]; 6 h): -16%; change in vivo at 10 mg/kg ([2]; 24 h): 7%

Question: Which change in vivo at 32 mg/kg [1] does the source give for `CC[C@H]1CN(CCCC(=O)c2ccc(F)cc2)CC[C@H]1CCC(O)c1cc(C)nc2ccccc12` (stereo partly drawn) [Compound 39, N-[3-(4-fluorobenzoyl)propyl]-2'-methyl-hydrocinchonicinol-1] here?
Answer: Its change in vivo at 32 mg/kg is 5%.

Question: What about the change in vivo at 1 mg/kg ([2]; 1 h) of the same compound?
Answer: Its change in vivo at 1 mg/kg is -16%.

Question: What about the change in vivo at 1 mg/kg ([2]; 2 h) of the same compound?
Answer: Its change in vivo at 1 mg/kg is -24%.

Question: What about the change in vivo at 1 mg/kg ([2]; 4 h) of the same compound?
Answer: The change in vivo at 1 mg/kg was -26%.

Question: And the change in vivo at 1 mg/kg ([2]; 6 h)?
Answer: The change in vivo at 1 mg/kg was -23%.

Question: What about the change in vivo at 1 mg/kg ([2]; 24 h) of the same compound?
Answer: Its change in vivo at 1 mg/kg is -1%.
